System: miR-124
Assay: miR-124 (RT-q)PCR in PBMCs, CD4+ and CD8+ T cells, macrophages
Format: cell-based, human
Settings: PBMCs treated with antiretrovirals
Protocol: Buffy coats from HIV-negative individuals were obtained from the local blood donation center in Centre de transfusion sanguine Montpellier. Human peripheral blood mononuclear cells (PBMCs) were isolated by Ficoll (Histopaque, Sigma) gradient centrifugation. CD4+ and CD8+ T cells were purified from PBMCs after Ficoll gradient centrifugation by Human CD4+ beads positive selection and CD8+ beads positive selection, respectively (Miltenyi). PBMCs, CD4+ and CD8+ T cells were grown at 37° C. and 5% CO2 to a density of 1.5×10^6 cells/ml in RPMI GlutaMAX medium (Life Technologies) supplemented with 10% fetal calf serum (FCS) (Thermo Fisher), 40 U/ml of IL2 (PeproTech) and 5 μg/mL of PHA (Roche) for 2 days. Three days later, cells were resuspended at 1.5×10^6 cells/ml in RPMI supplemented with 10% FCS and 40 U/ml IL2 and separated into two parts (infected and uninfected cells). Cells were infected with 80 ng of p24/106 cells of the YU-2 strain for 4 to 6 hours and then rinsed with PBS before medium renewal.
Both infected and uninfected cells were then centrifuged and resuspended to a density of 1.5×10^6 cells/ml in medium supplemented with diluted drug solubilized in DMSO (Sigma) to a final 0.05% DMSO concentration or antiretroviral compounds according to the manufacturer's instructions. Cells were treated for 6 days with a medium renewal at day 3. HIV p24 titration was performed by ELISA from cell culture supernatants with Innotest kit (Ingen) according to the manufacturer's instructions.
To generate monocyte-derived macrophages, monocytes were isolated using CD14+ positive microbeads (Miltenyi) and cultured in X-VIVO 10 medium (Lonza) supplemented with 10 mM HEPES, 1 mM sodium pyruvate, 1% non-essential amino acids, 10% FBS, 10 ng/ml GM-CSF and 100 ng/ml M-CSF for 7 days with medium renewal at day 3. After 7 days of differentiation, the cells were washed, plated in 6-well plates and incubated for 24 hours in medium without cytokine addition. Cells were treated for 6 days with a partial medium change at day 3.
miRNAs were extracted from PBMCs, CD4+ or CD8+ T cells using the NucleoSpin miRNeasy kit (Macherey-Nagel) according to the manufacturer's instructions. miRNA reverse transcription (RT) was performed using the miScript II RT kit (Qiagen). […] The relative levels of miR-124 were calculated using the 2^−ΔΔCt method.
Total RNA was extracted from macrophages using the Macherey-Nagel NucleoSpin miRNeasy kit. miRNA reverse transcription (RT) was performed on 2 μl of total RNA according to the Applied Biosystems TaqMan Advanced miRNA assays protocol for TaqMan qPCR. […] PCR runs were analyzed with Applied Biosystems ViiA 7 software.

Compound | miR-124 expression compared to untreated cells (DMSO)
Cc1cn([C@H]2C[C@H](N=[N+]=[N-])[C@@H](CO)O2)c(=O)[nH]c1=O [AZT] | did not upregulate
CC(C)CN(C[C@@H](O)[C@H](Cc1ccccc1)NC(=O)O[C@H]1CO[C@H]2OCC[C@H]21)S(=O)(=O)c1ccc(N)cc1 [darunavir] | did not upregulate
O=C1Nc2ccc(Cl)cc2[C@@](C#CC2CC2)(C(F)(F)F)O1 [efavirenz] | did not upregulate
maraviroc | did not upregulate
